The values below come from PMC4027214 (2014).

Assay [1] has as its system TFF1-ERE (DNA, duplex) AGGTCACGGTGGCCA/TGGCCACCGTGACCT
The assay is described as follows: NMR titration and solution structure. As to conditions: 50 mM sodium phosphate (Na+); pH 7, 25 °C; bis-intercalation, each drug one strong and one weak intercalation site.

Assay [2] has the same test system. Put plainly: fluorescent intercalator displacement (FID). As to conditions: 5 mM sodium phosphate (Na+); pH 7, 25 °C; ethidium bromide displaced; DNA 16.7 μM; fit assumes KD1 = KD2; apparent.

On to `Cc1cccc2nc3cccc(C(=O)NCCNCCNCCNC(=O)c4cccc5nc6cccc(C)c6nc45)c3nc12`, for which the binding entry in assay [1] is on record as “yes”. Besides, the KD in assay [2] is ~ 9.65 × 10^−7 M.
